pKi: −log10 of the molar value.
Tests used:
[1] = (§1) Inhibition of GABA-T; parameters: species or system Rattus norvegicus
Rattus norvegicus = species on record: Rattus norvegicus; assay: as §1

C=CC(=O)c1ccc(O)cc1
pKi [1]: 3.33
Activity (Rattus norvegicus): Time-dependent effect

Reference: ChEMBL document CHEMBL1138942, “Inactivation of GABA transaminase by 4-acryloylphenol” (Bioorg Med Chem Lett, 2006)
